Assay results taken from US20050136481A1, “Systems and methods for predicting the structure and function of multipass transmembrane proteins” (priority 2003, published 2005).

How the values were obtained:
[1] = target: T1, rhodopsin (Bos taurus, UniProt P02699); conditions: Okada et al., 2001; cited from earlier work
[2] = target: bovine rhodopsin (Bos taurus, UniProt P02699); experiment: HierDock binding energy calculation (Eq. 1) of retinal ligands docked into the rhodopsin structure; conditions: all-trans-retinal versus 11-cis-retinal, HierDock Eq. 1
Sequence of bovine rhodopsin (P02699 whole entry): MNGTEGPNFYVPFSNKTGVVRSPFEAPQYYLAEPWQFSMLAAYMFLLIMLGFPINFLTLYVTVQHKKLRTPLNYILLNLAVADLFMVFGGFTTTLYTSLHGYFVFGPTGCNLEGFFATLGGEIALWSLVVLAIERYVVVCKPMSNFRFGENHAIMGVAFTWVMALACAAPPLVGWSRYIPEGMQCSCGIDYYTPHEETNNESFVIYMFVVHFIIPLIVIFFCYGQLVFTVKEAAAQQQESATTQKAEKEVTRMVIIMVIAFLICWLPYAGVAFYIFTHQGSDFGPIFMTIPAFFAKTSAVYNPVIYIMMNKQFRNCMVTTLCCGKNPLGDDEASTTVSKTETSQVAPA
Excerpt: The negative of the molecular surface of the protein was used to define potential binding regions within the target protein over which the various ligand conformations are to be sampled. The void regions are mapped with spheres generated over the whole target protein using the Sphgen program in DOCK (see Kuntz laboratory at UCSF, San Francisco, Calif.).
To locate the most favorable ligand binding site(s), DOCK 4.0 (Ewing and Kuntz, 1997, incorporated herein by reference) can be used to generate a set of conformations for binding the ligand of interest (e.g. in the case of rhodopsin, 11-cis-retinal—a ligand known to bind to bovine rhodopsin) to each of the overlapping docking regions identified above. For this docking step, a bump filter of 10, a non-distance-dependent dielectric constant of 1.0, and a cutoff of 10 Å may be used for energy evaluation. These values may be adjusted according to specific target proteins. […]
The ligand/protein conformations from Step 5 are further energy-minimized with all atoms (protein, lipid, and ligand) movable using conjugate gradients. The structure with the binding energy calculated by Eq. 1 is selected as: BE1=Energy[ligand in protein complex]−Energy[free Ligand in solvent] […]
Here the energy of the ligand in water is calculated using DREIDING FF and analytical volume Generalized-Born continuum solvation (GBCS) method. […]

[3] = target: T1, rhodopsin; conditions: experimental result, retinal ligand/protein complex, Okada et al., 2001; cited from earlier work

T1 sequence (P02699 whole entry): as above

CC1=C(/C=C/C(C)=C/C=C/C(C)=C/C=O)C(C)(C)CCC1 [11-cis-retinal]
effect on G-protein signaling [1]: inverse agonist

CC1=C(/C=C/C(C)=C/C=C/C(C)=C/C=O)C(C)(C)CCC1 [all-trans-retinal]
difference in binding energy [2]: 32 kcal/mol

CC1=C(/C=C/C(C)=C/C=C/C(C)=C/C=O)C(C)(C)CCC1 [retinal]
energy stored upon isomerization in the protein [3]: 34.7 ± 2.2 kcal/mol
